Assay results: patent US7794929B2, “Genomic screen for epigenetically silenced genes associated with cancer” (The Johns Hopkins University School of Medicine, priority 2002, dated 2010)

Experiments:
RKO cells = assay: Subtraction microarray and semi-quantitative RT-PCR of gene expression after DAC and/or TSA treatment; assay type: cell-based, human; details: for expression of Group 2 genes (n=23) / expression of Group 1 genes (n=51): RKO cells, semi-quantitative RT-PCR; for expression of Group 2 genes (n=23): DAC alone or TSA alone; for expression of Group 1 genes (n=51): low dose DAC alone, TSA alone or combined
Description: RKO cells were treated with 5-aza-2′-deoxycytidine (DAC; Sigma) and/or trichostatin A (TSA; Wako) as described (Cameron et al., supra, 1999). Briefly, the treatment consisted of DAC (200 nM) for 48 hr, with drug and medium replaced at the 24 hr time point after beginning of treatment, followed by addition of TSA to a final concentration of 300 nM (from a 1.5 mM ethanol dissolved stock) and incubation for an additional 24 hr. Cells also were treated with DAC alone or TSA alone, or mock treated, using the same volumes of PBS and/or ethanol, and/or same amount of the drugs. Some colorectal cancer (CRC) cell lines also were treated for RT-PCR analysis to assess more robust levels of gene expression; treatment was with 5 μM DAC for 72 hr, with drug and medium being replaced every 24 hr. Total RNA was extracted using the TRIZOL Reagent (Gibco/BRL), and used for microarray analysis, cDNA subtraction and RT-PCR. Prior to cDNA subtraction, poly A RNA was isolated from total RNA using the MESSAGE MAKER Reagent Assembly kit (Gibco/BRL). cDNA subtraction was performed with the combination treated RKO cell line as the tester, and mock treated cells as the driver by using the PCR-Select™ cDNA subtraction kit (Clontech). Synthesized cDNA was digested with Rsa I, and tester cDNA was ligated to adaptors included in the kit. After hybridization, PCR amplification of the subtracted cDNA was performed using the ADVANTAGE cDNA PCR kit (Clontech). Microarray analysis was performed using the Mammalian GeneFilters Microarrays™ system (Research Genetics). Filters were generated for approximately 5,000 of the genes analyzed in the Johns Hopkins Comprehensive microarray core, and filters for an additional 5,000 genes were purchased (Human GeneFilters Microarrays™ Release II; Research Genetics). A total of 10,814 genes and ESTs were analyzed. Hybridization of the filters was performed according to manufacturer's recommendation. Briefly, 5 μg of total RNA was reverse transcribed and labeled using oligo (dT)12-18 primer and ^32dCTP with SUPERSCRIPT II reverse transcriptase (Gibco/BRL). Hybridization of the filters was allowed to proceed for 12 to 18 hr. Data was analyzed using the PSCAN program (National Institutes of Health). For subtraction-microarray analysis, the 2nd PCR product from cDNA subtraction was labeled with ^33P using the MULTIPRIME DNA labeling system (Amersham). Hybridization and data analysis were performed as described above. Microarray analysis was repeated independently at least three times for each condition, and results for probing the arrays with cDNA for total RNA from mock treated cells were compared to those for hybridizations with subtraction PCR products. DNase I (Ambion) treated total RNA (2 μg) was reverse transcribed for single stranded cDNA using oligo (dT)12-18 primer with SUPERSCRIPT II reverse transcriptase (Gibco/BRL). PCR reactions were performed in a volume of 50 μl containing 1×PCR buffer (Gibco/BRL), 1.5 mM of MgCl2, 0.3 mM of dNTP, 0.25 μM of each primer and 2 U of Taq polymerase (Gibco/BRL). One hundred ng of cDNA was used for PCR amplification, and all of the genes were amplified with multiple cycle numbers (20 to 35 cycles) to determine appropriate conditions to obtain semi-quantitative differences in their expression levels. GAPDH PCR (25 and 28 cycles) was performed to ensure cDNA quality and loading accuracy. Amplification primer pairs were as shown in Table 4 (SEQ ID NOS: 149 to 296.

CRC cell lines = assay: RT-PCR expression analysis of methylation silenced genes in CRC cell lines after DAC treatment; assay type: cell-based, human
Description: Briefly, the treatment consisted of DAC (200 nM) for 48 hr, with drug and medium replaced at the 24 hr time point after beginning of treatment, followed by addition of TSA to a final concentration of 300 nM (from a 1.5 mM ethanol dissolved stock) and incubation for an additional 24 hr. Cells also were treated with DAC alone or TSA alone, or mock treated, using the same volumes of PBS and/or ethanol, and/or same amount of the drugs. Some colorectal cancer (CRC) cell lines also were treated for RT-PCR analysis to assess more robust levels of gene expression; treatment was with 5 μM DAC for 72 hr, with drug and medium being replaced every 24 hr. Total RNA was extracted using the TRIZOL Reagent (Gibco/BRL), and used for microarray analysis, cDNA subtraction and RT-PCR. DNase I (Ambion) treated total RNA (2 μg) was reverse transcribed for single stranded cDNA using oligo (dT)12-18 primer with [sequence] II reverse transcriptase (Gibco/BRL). PCR reactions were performed in a volume of 50 μl containing 1×PCR buffer (Gibco/BRL), 1.5 mM of MgCl2, 0.3 mM of dNTP, 0.25 μM of each primer and 2 U of Taq polymerase (Gibco/BRL). One hundred ng of cDNA was used for PCR amplification, and all of the genes were amplified with multiple cycle numbers (20 to 35 cycles) to determine appropriate conditions to obtain semi-quantitative differences in their expression levels. GAPDH PCR (25 and 28 cycles) was performed to ensure cDNA quality and loading accuracy. […] For RT-PCR, SFRP2 sense and antisense primers were designed for exons 2 and 3, respectively; SFRP4 sense and antisense primers were designed for exons 2 and 5, respectively; and SFRP5 sense and antisense primers were designed for exons 2 and 3, respectively.

[1] = colorectal cancer cells and/or gastric cancer cells

Row | Compound | expression of Group 2 genes (n=23) (RKO cells) | expression of Group 1 genes (n=51) (RKO cells) | basal level of expression of HOXA1, GRO3 and DLX7 (RKO cells; [1]) | expression of POR1, MBNL, TRADD, PDIP, RAD23B, RPL13, GNAI2, PPP1R21A, FPGT and TRIM32 (RKO cells; [1]) | expression of PTGS2, CDKN2A, TIMP3, S100A10, SFRP1, CXX1, SEZZ6L, KIAA0786, TIMP2, PCDH8, FOLH1 and SNRPN (no detectable basal expression) (RKO cells; [1]) | expression of FOLH1 and PCDH8 (silent genes) (CRC cell lines; CRC cell lines) | basal expression of the hypermethylated SFRP genes (the three other than SFRP1) (CRC cell lines; CRC cell lines, DAC treatment) | KIAA0786 expression (not basally expressed despite a lack of methylation) (CRC cell lines; SW480 cells) | expression of Group 1a genes lacking basal expression in the methylated cell lines (CRC cell lines; series of 8 CRC cell lines, incubation with DAC)
1 | Nc1ncn([C@H]2C[C@H](O)[C@@H](CO)O2)c(=O)n1 [DAC, 5-aza-2′-deoxycytidine] | variable initial expression or response | minimal increase in expression | increased | vary among genes | re-expressed | re-expression | restored | reactivated | restored
2 | CC(/C=C/C(=O)NO)=C\[C@@H](C)C(=O)c1ccc(N(C)C)cc1 [TSA, trichostatin A] | up-regulation | no change in expression | not | up-regulated | – | – | – | – | –
